Data from publication PMC4766710 (BMC Cancer, 2016).
Where two headings read alike, the source gives them in different places. Blank lines part the entries; values can stand above or below the compound they belong to.

Columns and labels:
[1] = in vivo, 75 mg
[2] = clinical; conditions: human, in vivo, 75 mg
[3] = test system: advanced biliary tract cancer; test: ABC-04 phase Ib trial: objective response (RECIST v1.1), PFS, deaths; format: in vivo, patients; conditions: 75 mg bd + CisGem
Experimental: Patients were assessed prior to starting treatment and at regular intervals throughout treatment. […] All AEs occurring between the date of signing consent and 30 days after the last dose of any trial treatment were recorded. AEs were graded according to CTCAE v 4.03. Blood biochemistry and a full blood count with differential were carried out at the same time points as the physical examinations. […] In addition, prior to registration, an electrocardiogram and echocardiogram, and an ophthalmological examination were required. Disease status was assessed by computed tomography (CT) scan, with or without a liver magnetic resonance (MR) scan, prior to registration, after cycles 4 and 8 and then subsequently every 12 weeks until disease progression. Patients with measurable disease at baseline were assessed for objective response according to RECIST v1.1 [10]. For patients with non-measurable disease, objective response was not assessed and progressive disease was documented by the appearance of new lesions or by symptomatic deterioration.
Tumour responses were assessed according to RECIST version 1.1. The best response across all time points has been reported. For PFS and OS, the time to progression or death was measured from the date of registration. PFS and OS were estimated for the population by the Kaplan-Meier method.

[4] = ABC-04 phase Ib trial: dose limiting toxicity, adverse events, compliance; format: in vivo, patients
Experimental: Four dose levels were included in the protocol for potential evaluation; 75 mg bd, 50 mg bd, 75 mg once daily (od) and 50 mg od. The first dose level evaluated was 75 mg bd. Patients were recruited in cohorts of three. The number of patients experiencing a DLT during the first cycle of treatment in each cohort was used to decide the dose level at which to recruit the next cohort. If no patients experienced a DLT, then that dose level was the recommended dose. If one patient experienced a DLT, the cohort was to be expanded to six patients. If > 2 patients experienced DLT, then subsequent patients were to be entered into the next lower dose level. […]
Patients were assessed prior to starting treatment and at regular intervals throughout treatment. […] All AEs occurring between the date of signing consent and 30 days after the last dose of any trial treatment were recorded. […] Disease status was assessed by computed tomography (CT) scan, with or without a liver magnetic resonance (MR) scan, prior to registration, after cycles 4 and 8 and then subsequently every 12 weeks until disease progression. Patients with measurable disease at baseline were assessed for objective response according to RECIST v1.1 [10]. For patients with non-measurable disease, objective response was not assessed and progressive disease was documented by the appearance of new lesions or by symptomatic deterioration. […]

[5] = test system: ABC; conditions: monotherapy 100 mg bd, older formulation; 29 patients with ABC; cited from earlier work
[6] = RECIST v1.1, listed as selumetinib

AUC(0-t) ([1]; human): 347.26 ng·h/mL | Cmax ([1]; human): 77.16 ng/mL | Tmax ([1]; human): 2.00 h | decrease of AUC(0-t) in the presence of CisGem ([1]; human): 40% | decrease of AUC(0-∞) in the presence of CisGem ([1]; human): 40% | decrease of Cmax in the presence of CisGem ([1]; human): 40% | AUC(0-∞) [1]: 452.88 ng·h/mL
SMILES: O=C(NOCCO)c1cc2nc[nH]c2c(F)c1Nc1ccc(Br)cc1Cl [N-desmethyl selumetinib]

SMILES: Cn1cnc2c(F)c(Nc3ccc(Br)cc3Cl)c(C(=O)NOCCO)cc21 [Selumetinib]
AUC(0-inf) [2]: 5650 ng·h/mL | Tmax [2]: 1.55 h | Cmax ([1]; human): 1331.33 ng/mL | Median time from documented best objective response until progression or death [3]: 5.9 months | median time from documented best objective response until progression or death, best response SD [3]: 3.1 months | median PFS ([3]; IQR 5.2 to 13.7): 6.4 months | PFS rate at 6 months ([3]; Kaplan-Meier): 67% | PFS rate at 12 months ([3]; Kaplan-Meier): 33% | Best objective response: Complete response ([3]; RECIST v1.1): 1 N | Best objective response: Partial response ([3]; RECIST v1.1): 1 N | Best objective response: Stable disease ([3]; RECIST v1.1): 6 N | Best objective response: Partial response [3, 6]: 3 N | Best objective response: Stable disease [3, 6]: 5 N | Best objective response: Not evaluable ([3]; RECIST v1.1, total 13): 5 N | patients who had died ([3]; at the time of the final analysis): 7 patients | deaths considered related to protocol treatment ([4]; 75 mg bd + CisGem): None | recommended dose of selumetinib when combined with CisGem ([4]; dose de-escalation scheme, patients with ABC): 75 mg bd | response rate [5]: 12%
